PMC9401600 (Chemmedchem, 2022)
Each block holds one molecule with its values, some of them ahead of it.

Assays:
[1] = target: T1, G9a (Homo sapiens, UniProt Q96KQ7); experiment: G9a Homogeneous Assay Kit (AlphaLISA) G9a inhibition; assay type: biochemical
T1 construct: purchased BPS Bioscience 52051
T1 sequence (Q96KQ7 1-1210): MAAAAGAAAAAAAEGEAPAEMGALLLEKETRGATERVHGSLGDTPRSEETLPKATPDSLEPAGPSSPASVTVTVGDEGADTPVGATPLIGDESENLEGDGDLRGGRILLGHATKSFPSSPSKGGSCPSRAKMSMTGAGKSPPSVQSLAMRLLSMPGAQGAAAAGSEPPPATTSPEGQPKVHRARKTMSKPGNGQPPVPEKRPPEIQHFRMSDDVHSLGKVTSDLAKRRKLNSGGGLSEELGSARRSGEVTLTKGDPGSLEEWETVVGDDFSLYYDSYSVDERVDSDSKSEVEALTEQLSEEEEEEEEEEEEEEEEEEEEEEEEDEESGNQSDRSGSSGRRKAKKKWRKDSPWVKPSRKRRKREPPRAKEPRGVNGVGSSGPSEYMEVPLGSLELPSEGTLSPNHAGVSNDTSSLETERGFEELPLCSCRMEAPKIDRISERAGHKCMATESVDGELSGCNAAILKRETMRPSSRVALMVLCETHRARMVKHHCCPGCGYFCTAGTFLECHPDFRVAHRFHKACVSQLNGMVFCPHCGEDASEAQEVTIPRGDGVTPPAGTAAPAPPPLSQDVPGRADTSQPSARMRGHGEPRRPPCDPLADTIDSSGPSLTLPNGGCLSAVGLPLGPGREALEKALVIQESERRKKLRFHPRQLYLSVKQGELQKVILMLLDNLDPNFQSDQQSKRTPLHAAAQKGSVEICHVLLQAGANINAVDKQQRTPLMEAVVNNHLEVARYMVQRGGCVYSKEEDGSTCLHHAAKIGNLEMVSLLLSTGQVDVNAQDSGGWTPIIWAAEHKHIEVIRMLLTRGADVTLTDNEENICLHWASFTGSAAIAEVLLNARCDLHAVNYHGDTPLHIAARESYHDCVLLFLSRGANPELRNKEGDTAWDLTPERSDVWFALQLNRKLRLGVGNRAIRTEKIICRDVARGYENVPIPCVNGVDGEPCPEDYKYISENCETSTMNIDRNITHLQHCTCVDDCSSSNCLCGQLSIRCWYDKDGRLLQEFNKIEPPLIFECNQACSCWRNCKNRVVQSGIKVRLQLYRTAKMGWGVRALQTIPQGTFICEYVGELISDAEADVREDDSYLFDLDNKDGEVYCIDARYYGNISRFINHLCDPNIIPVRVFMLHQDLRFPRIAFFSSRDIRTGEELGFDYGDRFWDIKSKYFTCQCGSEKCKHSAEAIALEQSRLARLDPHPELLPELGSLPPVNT
Description: The percentages of G9a activity for the 10 selected molecules were determined at 100 μM S‐adenosylmethionine (SAM) and peptide substrate using AlphaLISA® technology. These percentages were used to calculate the IC50.
G9a inhibitors were serially diluted between 5 nM and 0.001 nM in 100 % DMSO (Sigma, St. Louis, USA). Then, respective concentrations were subsequently diluted in MilliQ purified water to reach a final concentration ranging between 50 and 0.001 μM in 1 % DMSO in well.
Briefly, a sample containing the G9a enzyme is incubated with the biotinylated substrate plus inhibitor solution for two hours. Next, acceptor beads and primary antibody is added, followed by donor beads. Finally, the Alpha‐counts were read using an AlphaScreen microplate reader. The experiment was run per triplicate. G9aactivity(%)=(C-Cb)/(Ct-Cb)x100
Ct=The chemiluminescence reading in the absence of the compound. The data set here is defined as 100 % activity in the absence of the compound.
Cb=The chemiluminescence reading in absence of enzyme. The data set here is defined as 0 % activity in the absence of the enzyme.
C=The chemiluminescence reading in the presence of the compound.
Data analysis was conducted using GraphPad Prism ver. 9 statistical software. The statistical outliers were identified with Grubb's test and excluded from the analysis. Group comparisons were carried out with a One‐way Analysis of variance (ANOVA), followed by the Dunnett post hoc test. In some cases, comparison between groups was also performed by unpaired t‐test or One‐way ANOVA, followed by Fisher's LSD post hoc test. For the calculation of IC50, non‐linear regressions were performed. […] Values are shown as the mean ± Standard error of the mean (SEM) of at least n=3. Statistical significance was considered when p values were <0.05.

[2] = system: Aβ deposits in CL2006 strain; experiment: Thioflavin‐S staining of Aβ aggregation; assay type: in vivo, Caenorhabditis elegans; settings: head region, after 5 days of treatment, compared to the vehicle group
Description: The transgenic AD strain CL2006 is characterized by the expression of human Aβ1‐42 under the control of a muscle‐specific promoter, making it suitable to answer this objective in our work. As we mentioned above, UNC0638 was used as a positive control. […] After 5 days of treatment, adult CL2006 C. elegans were fixed in 4 % Paraformaldehyde/Phosphate‐buffered saline (PBS) (pH 7.5), for 24 hours at 4 °C. […] On the last day, nematodes were stained with 0.125 % Thioflavin‐S (ThS) (Sigma, CAS# 1326–12‐1) in 50 % ethanol (EtOH) for 2 min, destained in 50 % EtOH for 2 min, washed 3 times with PBS. To prepare the glass slide for microscopy, approximately 10 μL volume was transferred on a droplet of Fluoromount G (Electron Microscopy Sciences, CAT#17984‐25). Fluorescence images were acquired using a 20 Å∼ objective of a fluorescence microscope. Aβ in the head region of worms were quantified by counting the number of Th−S positive spots using ImageJ and were expressed as Aβ deposits/anterior area.

[3] = PAMPA‐BBB assay; assay type: in vitro ADME; settings: pig, PAMPA; PBS:EtOH (70 : 30); values as printed in text; read-out: in vitro permeability (Pe), PAMPA‐BBB
Description: To evaluate the brain penetration of the different compounds, a parallel artificial membrane permeation assay for BBB was used, following the method described by Di et al..[33] The in vitro Pe of fourteen commercial drugs through lipid extract of porcine brain membrane together with the test compounds were determined. Commercial drugs and assayed compounds were tested using a mixture of PBS:EtOH (70 : 30).

[4] = target: T1, G9a; design: method as in PMID 31141392, PMID 31276898, PMID 29890830, PMID 33661013, PMID 30753076; settings: previously reported, dependent on the assay conditions used; cited from earlier work

- % G9a activity ([1]; 0.0001 µM, first data set of Table S2): 36.4%
- % G9a activity ([1]; 0.0001 µM, second data set of Table S2): 37.2%
- % G9a activity ([1]; 0.0001 µM, third data set of Table S2): 36.8%
- % G9a activity ([1]; 0.001 µM, first data set of Table S2): 34.1%
- % G9a activity ([1]; 0.001 µM, second data set of Table S2): 35.7%
- % G9a activity ([1]; 0.001 µM, third data set of Table S2): 34.9%
- % G9a activity ([1]; 0.01 µM, first data set of Table S2): 17.0%
- % G9a activity ([1]; 0.01 µM, second data set of Table S2): 15.3%
- % G9a activity ([1]; 0.01 µM, third data set of Table S2): 16.1%
- % G9a activity ([1]; 0.1 µM, first data set of Table S2): 7.9%
- % G9a activity ([1]; 0.1 µM, second data set of Table S2): 6.8%
- % G9a activity ([1]; 0.1 µM, third data set of Table S2): 7.0%
- % G9a activity ([1]; 1 µM, first data set of Table S2): 5.2%
- % G9a activity ([1]; 1 µM, second data set of Table S2): 5.8%
- % G9a activity ([1]; 1 µM, third data set of Table S2): 6.3%
- % G9a activity ([1]; 10 µM, first data set of Table S2): 1.9%
- % G9a activity ([1]; 10 µM, second data set of Table S2): 2.6%
- % G9a activity ([1]; 10 µM, third data set of Table S2): 1.9%
- % G9a activity ([1]; 50 µM, first data set of Table S2): 0.1%
- % G9a activity ([1]; 50 µM, second data set of Table S2): 0.7%
- % G9a activity ([1]; 50 µM, third data set of Table S2): 0.3%
- Papp [3]: 6.2 ×10⁻⁶ cm/s
SMILES: COc1cc2c(NC3CCN(C(C)C)CC3)nc(C3CCCCC3)nc2cc1OCCCN1CCCC1 [UNC0638, reference compound]
- reduction of Aβ deposition (Thioflavin S‐positive particles) [2]: approximately 25%

SMILES: O=C1c2ccccc2-c2onc3c(N4CCCC4)cc(NCCN4CCCC4)c1c23 [Compound 7]
- IC50 [4]: 1.2 µM

SMILES: COc1cc2c(cc1OC)-c1c(C)c3cc(OC)c(OC)cc3c[n+]1CC2 [Compound 8, pseudodehydrocorydaline]
- IC50 [4]: 16.3 µM
